PubChem BioAssay AID2503 (Sanford-Burnham Center for Chemical Genomics, 2010)
Calls of active or inactive are those of the source. The rule behind the calls is not given here.

Tested on: MCF-7/NOD2 cells, MDP-induced IL-8 secretion
Assay: inhibition of NOD2-driven IL-8 release, SAR follow-up, MCF-7/NOD2 cells, MDP stimulus, set 2 (AID 2503)

IC50 | SMILES
> 25 µM (inactive) | CC(C)n1c(SCCCc2ccccc2)nc2c1c(=O)[nH]c(=O)n2C
> 25 µM (inactive) | C=CCn1c(SCCCc2ccccc2)nc2c1c(=O)[nH]c(=O)n2C
> 25 µM (inactive) | C/C=C/Cn1c(SCCCc2ccccc2)nc2c1c(=O)[nH]c(=O)n2C
> 25 µM (inactive) | CCCn1c(SCCc2ccccc2)nc2c1c(=O)[nH]c(=O)n2C
1.31 µM | Cn1c(=O)[nH]c(=O)c2c1nc([N+](=O)[O-])n2Cc1ccccc1
> 25 µM (inactive) | CCCCn1c(SCC(=O)c2ccccc2)nc2c1c(=O)[nH]c(=O)n2C
> 25 µM (inactive) | CCCCCn1c(SCCc2ccccc2)nc2c1c(=O)[nH]c(=O)n2C
> 25 µM (inactive) | CC(C)Sc1nc2c(c(=O)[nH]c(=O)n2C)n1Cc1ccccc1
> 25 µM (inactive) | COCCn1c(SCCCc2ccccc2)nc2c1c(=O)[nH]c(=O)n2C
> 25 µM (inactive) | C/C(Cl)=C\Cn1c(NCCc2ccccc2)nc2c1c(=O)n(C)c(=O)n2C
> 25 µM (inactive) | C/C=C/Cn1c(SCc2ccccc2)nc2c1c(=O)[nH]c(=O)n2C

Second part, the molecule before the results:

SMILES | IC50
CCCCn1c(CN2CCN(c3cccc(Cl)c3)CC2)nc2c1c(=O)n(C)c(=O)n2C | > 25 µM (inactive)
CCCn1c(SCC(=O)Nc2nc3c(s2)CCCC3)nc2c1c(=O)n(C)c(=O)n2C | > 25 µM (inactive)
O=C(Nc1nc2ccccc2n1Cc1ccc(Cl)cc1)c1ccco1 | > 25 µM (inactive)
Oc1ccc(N=Nc2ccccc2C(F)(F)F)c2cccnc12 | > 25 µM (inactive)
CCC(=O)Nc1nc2ccccc2n1Cc1ccc(Cl)cc1 | 13.2 µM
Nc1nc2ccccc2n1Cc1ccc(Cl)cc1 | 4.59 µM
Cc1ccc(S(=O)(=O)n2c(=S)[nH]c3cc(C)ccc32)cc1 | > 25 µM (inactive)
C/C=C/Cn1c(SCc2ccc(Cl)cc2)nc2c1c(=O)[nH]c(=O)n2C | > 25 µM (inactive)
CCCCn1c(SCC(=O)Nc2nnc(CC)s2)nc2c1c(=O)n(C)c(=O)n2C | > 25 µM (inactive)
Nc1nc2ccccc2n1CCOc1ccc(Cl)cc1 | > 25 µM (inactive)
COc1ccc(C(=O)Cn2c(N)nc3ccccc32)cc1 | > 25 µM (inactive)
Cc1ccc(S(=O)(=O)n2c(N)nc3ccccc32)cc1 | 17.3 µM
